From patent US11202748B2, “Photoprotective compositions containing malassezia-derived compounds and/or chemical analogs thereof” (Versicolor Technologies, LLC, priority 2018, dated 2021)

Columns and labels:
[1] = tested on: arylhydrocarbon receptor (AhR); settings: cited from earlier work
[2] = tested on: MeWo, WM115 and B16F1 cell lines; settings: expected result
Procedure: The cell lines MeWo (ATCC® HTB-65™), WM115 (ATCC® CRL-1675) and B16F1 (ATCC® CRL-6323) are maintained in the following culture media: culture medium for MeWo and B16F1: DMEM supplemented with 10% FBS; culture medium for WM115: RPMI 1640 supplemented with 10% FBS.
Cells are harvested and the cell number determined using a Countess Cell Counter. The cells are diluted with culture medium to the desired density. The final cell density may be, for example, 4,000 cells/well for 6 hr and 24 hr treatment, and 2,000 cells/well for 48 hr and 72 hr treatment. For the Annexin V assay, 384-well clear-bottom plates (Corning 3712) are employed, whereas 384-well solid white-bottom plates (Corning 3570) are used for the Caspase-Glo assays. All plates are covered with a lid and placed at 37° C. and 5% CO2 overnight for cell attachment.
Test compounds are dissolved in DMSO to 30 mM stock. 10-fold dilutions are performed to generate 3 mM and 0.3 mM concentrations. […]
For the Annexin V assay, plates are removed from the incubator and culture media is removed. […] Plates are read using ImageXpress Nano.
For the Caspase-Glo assay, plates are removed from the incubator and equilibrated at room temperature for 15 minutes. […] Plates are incubated at room temperature for 15 minutes and read using EnSpire™ plate reader. Fold induction is calculated according to the following formula: Fold induction=LumSample/LumNC.

[3] = expected result
Procedure: For the CellTiter-Glo assay, test compounds are prepared in 10 mM DMSO solution. Compounds are serially diluted into 12 concentrations. 40 uL of cells from a 100,000 cell/mL suspension are dispensed into each well of a 384-well plate (Corning 3570). Plates are incubated overnight at 37° C., 5% CO2, and 95% humidity. Test compounds are added, with DMSO as vehicle control. Plates are incubated at 37° C., 5% CO2, and 95% humidity for 6, 24, or 48 hours, and 40 uL of CellTiter-Glo reagent is added to the wells to assess cell viability.

[4] = target: arylhydrocarbon receptor (AhR) (Homo sapiens, UniProt P35869); settings: expected result
Procedure: Cultivated cells are rinsed with 5 mL PBS. […] Trypsin is inactivated by adding excess serum-containing media.
Cells are resuspended in seeding media at a proper density.
Compound solutions are transferred into the assay plate using Echo550. The plate is then placed back into the incubator for compound treatment.
Afterward, stock solutions of test compounds, test compositions, and omeprazole positive control are prepared. Compound and compositions solutions are transferred into the assay plate using Echo550. The plate is then placed back into the incubator for compound/composition treatment.

B16 melanocytes = settings: expected result
Procedure: Plating media will include DMEM without L-glutamine, FBS, penicillin/streptomycin, and L-glutamine. Assay media will include DMEM without phenol red and L-glutamine, FBS, penicillin/streptomycin, L-glutamine, and aMSH. Other reagents will include Kojic Acid, DMSO, and MTT. Cells tested will be B16 cells (ATCC CRL-6475).
B16 Melanocytes are cultured until 70% confluent and harvested. Cells are seeded in 96-well plates at a density of 4000 cells/well and are allowed to attach overnight. The following day, test articles and controls are diluted in B16 Assay media. Overnight media is aspirated and 200 ul of test articles and controls are applied. Cells are incubated at 37° C. and 10% CO2 for 72 hours. Following 72-hour incubation, absorbance is read at 540 nm. Media is removed and replaced with 100 ul of plating media containing 1 mg/mL MTT and incubated for 2 hours at 37° C. and 10% CO2. MTT media is removed and replaced with 200 ul of 95% Ethanol/5% Isopropanol and allowed to shake for 15 minutes. MTT absorbance then is read at 570 nm.
B16 Melanocytes are cultured until 70% confluent and harvested. Cells are seeded in 96-well plates at a density of 4000 cells/well and are allowed to attach overnight. The following day, test articles, test compositions, and controls are diluted in B16 Assay media. […] Following 72-hour incubation, absorbance is read at 540 nm. […] MTT absorbance then is read at 570 nm.

Chain of arylhydrocarbon receptor (AhR) (Homo sapiens, UniProt P35869) (P35869 11-848): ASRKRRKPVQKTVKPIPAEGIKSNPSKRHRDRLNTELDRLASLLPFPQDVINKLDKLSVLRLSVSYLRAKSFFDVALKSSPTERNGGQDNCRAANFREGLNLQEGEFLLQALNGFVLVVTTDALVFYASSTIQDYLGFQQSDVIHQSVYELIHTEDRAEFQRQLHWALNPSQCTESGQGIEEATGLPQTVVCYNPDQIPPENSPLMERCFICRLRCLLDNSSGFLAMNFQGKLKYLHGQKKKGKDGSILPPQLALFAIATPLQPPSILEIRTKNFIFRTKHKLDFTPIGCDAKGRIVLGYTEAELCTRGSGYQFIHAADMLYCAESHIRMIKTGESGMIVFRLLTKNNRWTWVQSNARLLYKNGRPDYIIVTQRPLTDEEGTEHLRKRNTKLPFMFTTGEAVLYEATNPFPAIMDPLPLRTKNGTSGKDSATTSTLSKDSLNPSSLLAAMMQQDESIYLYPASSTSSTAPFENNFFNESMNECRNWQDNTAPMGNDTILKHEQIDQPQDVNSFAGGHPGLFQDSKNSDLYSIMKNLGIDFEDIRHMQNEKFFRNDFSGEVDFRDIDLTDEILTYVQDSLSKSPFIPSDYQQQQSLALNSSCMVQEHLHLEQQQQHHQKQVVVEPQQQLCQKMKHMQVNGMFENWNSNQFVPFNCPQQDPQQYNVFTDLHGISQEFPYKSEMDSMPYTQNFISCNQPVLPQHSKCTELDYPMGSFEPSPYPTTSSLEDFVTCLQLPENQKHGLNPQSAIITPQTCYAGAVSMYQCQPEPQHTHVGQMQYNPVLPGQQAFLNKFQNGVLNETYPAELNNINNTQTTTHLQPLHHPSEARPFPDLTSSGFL

Compound	AhR agonist activity [1]	cell death / apoptosis induction [2]	cell death (cell viability) [3]	AhR activity modulation [4]	melanogenesis inhibition (B16 melanocytes)
O=C1Nc2ccccc2/C1=C1/Nc2ccccc2C1=O [Indirubin]	known agonist	will induce cell death	will induce cell death	will modulate AhR activity	will inhibit melanogenesis
O=Cc1c(Cc2c[nH]c3ccccc23)[nH]c2ccccc12 [Malassezin, 2-(1H-indol-3-ylmethyl)-1H-indole-3-carbaldehyde]	known agonist	–	–	–	–
